Test results taken from patent publication US11840526B2, “Compounds and method for preparing the same” (BEIJING GRAND JOHAMU PHARMACEUTICAL COMPANY, LTD., priority 2022, dated 2023).

Assay: Powder characteristics (Carr index, anti-caking property, fluidity) by intelligent powder comprehensive characteristic tester
Type: physicochemical
Set-up: key to Fluidity: Good: “good” means good solid state and good fluidity, which is favorable for formulation development; Less good: “less good” means average fluidity; Poor: “poor” means poor fluidity, which cannot be used for formulation development; key to Anti-caking property: Good: “good” means substantially no agglomeration or clumping; Less good: “less good” means partial clumping or agglomeration; Poor: “poor” means severe or complete clumping
From the text: The performance of the drug powder is influenced by various factors, among which the fluidity, anti-caking property and the like of the starting material drug (i.e., active pharmaceutical ingredient) play a key role in the formulation design, the quality control, the process design, the industrial production and the like of the drug. In the pharmaceutical field, poor fluidity mainly affects the uniformity of the mixed material, and such mixed material is easy to delaminate and has uneven material content; at the same time, the resulting tablet are easy to delaminate during tableting, resulting in inconsistent content of the tablet pressed at different times, and it is easy to cause a significant difference in tablet weight.
The fluidity, the anti-caking property and the like of compound 1 (i.e., (6E)-6-[(6-chloro-2-methyl-2H-indazol-5-yl)imino]-3-[(1-methyl-1H-1,2,4-triazol-3-yl)methyl]-1-(2,4,5-trifluorobenzyl)-1,3,5-triazinane-2,4-dione with different purities) in the above Comparative Examples 1-2 and Examples 1-12 were measured by an intelligent powder comprehensive characteristic tester (HMKTest LABULK, model: HMKFlow 6393 PT1000).
The Carr index reflects the quality of the fluidity, and a smaller value indicates better fluidity, while a Carr index of more than 23% generally indicates poor fluidity. For anti-caking property, “good” means substantially no agglomeration or clumping, “less good” means partial clumping or agglomeration, and “poor” means severe or complete clumping. For fluidity, “good” means good solid state and good fluidity, which is favorable for formulation development; “less good” means average fluidity; and “poor” means poor fluidity, which cannot be used for formulation development.
Similarly, the fluidity of the fumarate salt solid form of compound 1 prepared in the above Examples 28-29 and Comparative Example 3 was measured.

[1] = solid form of compound 1, smaller value = better fluidity, more than 23% generally indicates poor fluidity
[2] = fumarate salt solid form of compound 1

Anti-caking property (solid form of compound 1) | Fluidity (solid form of compound 1) | Carr index (%) [1] [%] | Anti-caking property [2] | Carr index (%) [2] [%] | Fluidity [2] | SMILES
Less good | Good | 18.8 | – | – | – | Cn1cnc(Cn2c(=O)[nH]/c(=N\c3cc4cn(C)nc4cc3Cl)n(Cc3cc(F)c(F)cc3F)c2=O)n1 [Example 5, (6E)-6-[(6-chloro-2-methyl-2H-indazol-5-yl)imino]-3-[(1-methyl-1H-1,2,4-triazol-3-yl)methyl]-1-(2,4,5-trifluorobenzyl)-1,3,5-triazinane-2,4-dione]
Less good | Good | 18.7 | – | – | – | Cn1cnc(Cn2c(=O)[nH]/c(=N\c3cc4cn(C)nc4cc3Cl)n(Cc3cc(F)c(F)cc3F)c2=O)n1 [Example 3, (6E)-6-[(6-chloro-2-methyl-2H-indazol-5-yl)imino]-3-[(1-methyl-1H-1,2,4-triazol-3-yl)methyl]-1-(2,4,5-trifluorobenzyl)-1,3,5-triazinane-2,4-dione]
Good | Good | 14.1 | – | – | – | Cn1cnc(Cn2c(=O)[nH]/c(=N\c3cc4cn(C)nc4cc3Cl)n(Cc3cc(F)c(F)cc3F)c2=O)n1 [Example 11, (6E)-6-[(6-chloro-2-methyl-2H-indazol-5-yl)imino]-3-[(1-methyl-1H-1,2,4-triazol-3-yl)methyl]-1-(2,4,5-trifluorobenzyl)-1,3,5-triazinane-2,4-dione]
Good | Good | 15.1 | – | – | – | Cn1cnc(Cn2c(=O)[nH]/c(=N\c3cc4cn(C)nc4cc3Cl)n(Cc3cc(F)c(F)cc3F)c2=O)n1 [Example 12, (6E)-6-[(6-chloro-2-methyl-2H-indazol-5-yl)imino]-3-[(1-methyl-1H-1,2,4-triazol-3-yl)methyl]-1-(2,4,5-trifluorobenzyl)-1,3,5-triazinane-2,4-dione]
Less good | Good | 21.2 | – | – | – | Cn1cnc(Cn2c(=O)[nH]/c(=N\c3cc4cn(C)nc4cc3Cl)n(Cc3cc(F)c(F)cc3F)c2=O)n1 [Example 8, (6E)-6-[(6-chloro-2-methyl-2H-indazol-5-yl)imino]-3-[(1-methyl-1H-1,2,4-triazol-3-yl)methyl]-1-(2,4,5-trifluorobenzyl)-1,3,5-triazinane-2,4-dione]
– | – | – | Good | 11.3 | Good | Cn1cnc(Cn2c(=O)[nH]/c(=N\c3cc4cn(C)nc4cc3Cl)n(Cc3cc(F)c(F)cc3F)c2=O)n1.O=C(O)/C=C/C(=O)O [Example 28, (6E)-6-[(6-chloro-2-methyl-2H-indazol-5-yl)imino]-3-[(1-methyl-1H-1,2,4-triazol-3-yl)methyl]-1-(2,4,5-trifluorobenzyl)-1,3,5-triazinane-2,4-dione fumarate salt]
Less good | Good | 18.5 | – | – | – | Cn1cnc(Cn2c(=O)[nH]/c(=N\c3cc4cn(C)nc4cc3Cl)n(Cc3cc(F)c(F)cc3F)c2=O)n1 [Example 6, (6E)-6-[(6-chloro-2-methyl-2H-indazol-5-yl)imino]-3-[(1-methyl-1H-1,2,4-triazol-3-yl)methyl]-1-(2,4,5-trifluorobenzyl)-1,3,5-triazinane-2,4-dione]
– | – | – | poor and Poor | 36.1 | poor and Poor | Cn1cnc(Cn2c(=O)[nH]/c(=N\c3cc4cn(C)nc4cc3Cl)n(Cc3cc(F)c(F)cc3F)c2=O)n1 [Comparative Example 3, (6E)-6-[(6-chloro-2-methyl-2H-indazol-5-yl)imino]-3-[(1-methyl-1H-1,2,4-triazol-3-yl)methyl]-1-(2,4,5-trifluorobenzyl)-1,3,5-triazinane-2,4-dione, reference compound]
Less good | Good | 21.4 | – | – | – | Cn1cnc(Cn2c(=O)[nH]/c(=N\c3cc4cn(C)nc4cc3Cl)n(Cc3cc(F)c(F)cc3F)c2=O)n1 [Example 1, (6E)-6-[(6-chloro-2-methyl-2H-indazol-5-yl)imino]-3-[(1-methyl-1H-1,2,4-triazol-3-yl)methyl]-1-(2,4,5-trifluorobenzyl)-1,3,5-triazinane-2,4-dione]
Less good | Good | 17.1 | – | – | – | Cn1cnc(Cn2c(=O)[nH]/c(=N\c3cc4cn(C)nc4cc3Cl)n(Cc3cc(F)c(F)cc3F)c2=O)n1 [Example 7, (6E)-6-[(6-chloro-2-methyl-2H-indazol-5-yl)imino]-3-[(1-methyl-1H-1,2,4-triazol-3-yl)methyl]-1-(2,4,5-trifluorobenzyl)-1,3,5-triazinane-2,4-dione]
Poor | Poor | 42.1 | – | – | – | Cn1cnc(Cn2c(=O)[nH]/c(=N\c3cc4cn(C)nc4cc3Cl)n(Cc3cc(F)c(F)cc3F)c2=O)n1 [Comparative Example 1, (6E)-6-[(6-chloro-2-methyl-2H-indazol-5-yl)imino]-3-[(1-methyl-1H-1,2,4-triazol-3-yl)methyl]-1-(2,4,5-trifluorobenzyl)-1,3,5-triazinane-2,4-dione, reference compound]
– | – | – | Less good | 12.1 | Good | Cn1cnc(Cn2c(=O)[nH]/c(=N\c3cc4cn(C)nc4cc3Cl)n(Cc3cc(F)c(F)cc3F)c2=O)n1 [Example 29, (6E)-6-[(6-chloro-2-methyl-2H-indazol-5-yl)imino]-3-[(1-methyl-1H-1,2,4-triazol-3-yl)methyl]-1-(2,4,5-trifluorobenzyl)-1,3,5-triazinane-2,4-dione]
Less good | Good | 20.7 | – | – | – | Cn1cnc(Cn2c(=O)[nH]/c(=N\c3cc4cn(C)nc4cc3Cl)n(Cc3cc(F)c(F)cc3F)c2=O)n1 [Example 2, (6E)-6-[(6-chloro-2-methyl-2H-indazol-5-yl)imino]-3-[(1-methyl-1H-1,2,4-triazol-3-yl)methyl]-1-(2,4,5-trifluorobenzyl)-1,3,5-triazinane-2,4-dione]
Poor | Poor | 39.4 | – | – | – | Cn1cnc(Cn2c(=O)[nH]/c(=N\c3cc4cn(C)nc4cc3Cl)n(Cc3cc(F)c(F)cc3F)c2=O)n1 [Comparative Example 2, (6E)-6-[(6-chloro-2-methyl-2H-indazol-5-yl)imino]-3-[(1-methyl-1H-1,2,4-triazol-3-yl)methyl]-1-(2,4,5-trifluorobenzyl)-1,3,5-triazinane-2,4-dione, reference compound]
Good | Good | 13.4 | – | – | – | Cn1cnc(Cn2c(=O)[nH]/c(=N\c3cc4cn(C)nc4cc3Cl)n(Cc3cc(F)c(F)cc3F)c2=O)n1 [Example 10, (6E)-6-[(6-chloro-2-methyl-2H-indazol-5-yl)imino]-3-[(1-methyl-1H-1,2,4-triazol-3-yl)methyl]-1-(2,4,5-trifluorobenzyl)-1,3,5-triazinane-2,4-dione]
Good | Good | 12.6 | – | – | – | Cn1cnc(Cn2c(=O)[nH]/c(=N\c3cc4cn(C)nc4cc3Cl)n(Cc3cc(F)c(F)cc3F)c2=O)n1 [Example 9, (6E)-6-[(6-chloro-2-methyl-2H-indazol-5-yl)imino]-3-[(1-methyl-1H-1,2,4-triazol-3-yl)methyl]-1-(2,4,5-trifluorobenzyl)-1,3,5-triazinane-2,4-dione]
Less good | Good | 19.4 | – | – | – | Cn1cnc(Cn2c(=O)[nH]/c(=N\c3cc4cn(C)nc4cc3Cl)n(Cc3cc(F)c(F)cc3F)c2=O)n1 [Example 4, (6E)-6-[(6-chloro-2-methyl-2H-indazol-5-yl)imino]-3-[(1-methyl-1H-1,2,4-triazol-3-yl)methyl]-1-(2,4,5-trifluorobenzyl)-1,3,5-triazinane-2,4-dione]
